Data reported in PMC2873993, “Comparative Therapeutic Effects of Velaglucerase Alfa and Imiglucerase in a Gaucher Disease Mouse Model” (PLoS ONE, 2010).
Positions count from the first letter of the chain named. Values belong to the molecule of their own block, whether it stands above or below them.

Legend:
[1] = test system: 9 V/null mouse; parameters: method as in PMID 17509920; details: cited from earlier work
[2] = target: T1, Imig (Homo sapiens, UniProt P04062, R534H); test: Inhibition of Imig by active site-directed GCase inhibitors (4MU-Glc substrate); assay type: biochemical; details: 8 pmol enzyme protein; SE ≤20%
T1 construct: purchased Genzyme, Cambridge, MA Lot#A7021H04; host or cells: CHO cells
T1 sequence (P04062 40-536 R534H): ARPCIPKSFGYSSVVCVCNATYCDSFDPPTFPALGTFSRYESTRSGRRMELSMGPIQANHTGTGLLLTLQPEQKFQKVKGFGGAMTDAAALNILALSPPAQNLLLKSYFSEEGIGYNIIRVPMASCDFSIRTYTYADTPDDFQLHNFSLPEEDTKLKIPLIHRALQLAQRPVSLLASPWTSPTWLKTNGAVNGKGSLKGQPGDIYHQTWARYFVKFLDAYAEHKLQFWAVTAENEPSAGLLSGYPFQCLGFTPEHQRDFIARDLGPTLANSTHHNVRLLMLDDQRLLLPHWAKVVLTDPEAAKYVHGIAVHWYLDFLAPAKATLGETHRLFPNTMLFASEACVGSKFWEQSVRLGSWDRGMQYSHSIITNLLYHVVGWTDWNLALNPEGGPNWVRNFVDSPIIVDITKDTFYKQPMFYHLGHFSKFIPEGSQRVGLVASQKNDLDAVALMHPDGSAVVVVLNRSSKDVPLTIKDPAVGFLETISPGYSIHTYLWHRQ

[3] = target: T2, Vela (Homo sapiens, UniProt P04062); test: Inhibition of Vela by active site-directed GCase inhibitors (4MU-Glc substrate); assay type: biochemical; details: 8 pmol enzyme protein; SE ≤20%
T2 construct: purchased HGT/Shire, Cambridge, MA Lot#FEC06-002
T2 sequence (P04062 40-536): T1 sequence (P04062 40-536 R534H) with H495R

[4] = test system: patients; details: Gaucher disease patients; cited from earlier work

Molecule: CCCCCCCC(=O)N[C@H](CN1CCCC1)[C@H](O)c1ccc2c(c1)OCCO2 [Genz 112638]
effect on alveolar Gaucher cells [1]: clearance of the alveolar Gaucher cells

IC50 [2]: 146 µM
IC50 [3]: 99.8 µM
Molecule: O[C@H]1[C@H](O)[C@@H](O)[C@@H]2O[C@@H]2[C@@H]1O (racemic) [Conduritol B epoxide]

B1: alglucerase (protein, UniProt P04062 40-536, looked up)
Lysosomal acid …: T1 sequence (P04062 40-536 R534H) with H495R
modifications: mannosyl-terminated glycans
patients who developed an IgG antibody response [4]: 13–15%
